From patent US20080279907A1, “Antimicrobial medical devices and methods for making and using same” (Ash Access Technology, Inc., priority 2007, published 2008)

Legend:
[1] = Perfusion of parabens and methylene blue through polycarbonate membrane in perfusion chamber (HPLC of lower chamber); assay type: physicochemical
Description: An experiment was performed to determine a method for perfusing methylene blue, methyl paraben, and propyl paraben through a polycarbonate membrane with causing only minimal changes to the strength and elasticity of the membrane. In FIG. 12, there is illustrated a perfusion chamber system 50 used during the experiment. System 50 includes an upper chamber 51 and a lower chamber 52 separated by a polycarbonate membrane 53 having a thickness of 0.60 mm. The upper and lower chambers 51, 52 are generally structured to hold 10.5 cm^3 or 10.5 ml of fluid. The upper chamber 51 was connected to a peristaltic pump (not shown) and the lower chamber 52 was filled with distilled water. First and second solutions, respectively including the parabens and the methylene blue, were prepared in accordance with the method set forth in EXAMPLE 6 above. As best seen in Tables 6 and 7 below, the solutions were connected to the pump and passed through the first chamber 51 at a constant rate at 37° C. over various lengths of time.
Table 6 includes data obtained from HPLC analysis comparing the methyl paraben, propyl paraben, and methylene blue concentrations in the lower chamber 52. The parameters for the methyl and propyl paraben and methylene blue treatments are indicated in the left hand columns.

[2] = Desorption of parabens from paraben impregnated polycarbonate catheter pieces in 0.24 M sodium citrate pH 6.2 (HPLC); assay type: physicochemical
Description: One inch polycarbonate catheter pieces including a surface area of about 4.64 cm^2 were impregnated with methyl paraben and propyl paraben. A solution of 100% 1,2-propanediol was prepared with 9% methyl paraben and 2% propyl paraben. Pairs of the one inch catheter pieces were placed into three 25 ml flasks including 10 ml of the 1,2-propanediol and paraben solution. The flasks including the catheter pieces were placed on a shaker at 220 rpm and 27° C. for two, four, or nine hour time periods. At the end of each time period, the catheter pieces were removed, rinsed with distilled water, and dried.
Desorption analysis of the paraben impregnated catheter pieces was performed in 0.24 M sodium citrate with a pH of 6.2. The total amount of either methyl paraben or propyl paraben released from the catheter pieces was calculated using HPLC analysis performed with a Waters Alliance 2690 including a 996 Photodiode Array Detector. Each calculation used a solution of HPLC grade H2O, methanol (MeOH), and acetonitrile (CAN) which were pre-filtered through a Millipore 0.45 μm nylon filter before use. Trifluoracetic acid (TFA) was added to H2O and acetonitrile (ACN) to 0.1%. A Waters Symmetry column (C8 3.9×150 mm, 5 μm) was applied with a Waters guard column (Waters, Sentry Guard column, Nova-Pak C18, 60A, 4 μm 3.9×20 mm).
A gradient of 67% H2O/33% ACN was used for 6.5 min, ramped to 45 %/55% from 6.5 to 7.0 min, and kept at 45%/55% until 15.0 min, at 15.0 min the concentration reverted to 67%/33%, and the system was run until 18 min. Injection volume for each sample was 10 μl and samples and column were run at ambient temperature.
Table 2 includes the graphical data represented in FIG. 8 and associated with the desorption of propyl paraben from the paraben impregnated catheter pieces prepared as discussed above. Again, the samples were impregnated only with parabens and desorbed in 10 ml 0.24 M Na-citrate, pH 6.2 over time.

[3] = lower chamber, 20% PG/80% DI H2O (0.9% MP, 0.2% PP) ~9 hrs at 37 C., then MB ~10 days

Compound: COC(=O)c1ccc(O)cc1 [MP, methyl paraben]
- time until perfused through the membrane and detected in the lower chamber ([1]; 0.60 mm polycarbonate membrane, 37° C.): within two hours
- ratio MP/PP from this sample ([1]; lower chamber sample): 4.7
- MP Conc [1, 3]: 0.047 mg/mL
- Total mg MP in 10.5 mL lower chamber [1, 3]: 0.4935 mg
- desorption by the end of the study ([2]; nearly 3 months, FIGS. 8 and 9): negligible desorption
- period of significant release ([2]; paraben impregnated catheter pieces, 0.24 M Na-citrate pH 6.2): 10 days
- Total MP released (mg)/1″ catheter ([2]; treatment 2 hrs (100% PG, 9% MP, 2% PP), time 1 hour): 0.361 mg/1″ catheter
- Total MP released (mg)/1″ catheter ([2]; treatment 2 hrs (100% PG, 9% MP, 2% PP), time 3 hours): 0.577 mg/1″ catheter
- Total MP released (mg)/1″ catheter ([2]; treatment 2 hrs (100% PG, 9% MP, 2% PP), time 7 hours): 0.84 mg/1″ catheter
- Total MP released (mg)/1″ catheter ([2]; treatment 2 hrs (100% PG, 9% MP, 2% PP), time 24 hours): 1.17 mg/1″ catheter
- Total MP released (mg)/1″ catheter ([2]; treatment 2 hrs (100% PG, 9% MP, 2% PP), time 4 days): 1.519 mg/1″ catheter
- Total MP released (mg)/1″ catheter ([2]; treatment 2 hrs (100% PG, 9% MP, 2% PP), time 5 days): 1.685 mg/1″ catheter
- Total MP released (mg)/1″ catheter ([2]; treatment 2 hrs (100% PG, 9% MP, 2% PP), time 6 days): 1.826 mg/1″ catheter
- Total MP released (mg)/1″ catheter ([2]; treatment 2 hrs (100% PG, 9% MP, 2% PP), time 8 days): 2.002 mg/1″ catheter
- Total MP released (mg)/1″ catheter ([2]; treatment 2 hrs (100% PG, 9% MP, 2% PP), time 11 days): 2.129 mg/1″ catheter
- Total MP released (mg)/1″ catheter ([2]; treatment 2 hrs (100% PG, 9% MP, 2% PP), time 13 days): 2.208 mg/1″ catheter
- Total MP released (mg)/1″ catheter ([2]; treatment 2 hrs (100% PG, 9% MP, 2% PP), time 15 days): 2.281 mg/1″ catheter
- Total MP released (mg)/1″ catheter ([2]; treatment 2 hrs (100% PG, 9% MP, 2% PP), time 18 days): 2.325 mg/1″ catheter
- Total MP released (mg)/1″ catheter ([2]; treatment 2 hrs (100% PG, 9% MP, 2% PP), time 22 days): 2.356 mg/1″ catheter
- Total MP released (mg)/1″ catheter ([2]; treatment 2 hrs (100% PG, 9% MP, 2% PP), time 29 days): 2.377 mg/1″ catheter
- Total MP released (mg)/1″ catheter ([2]; treatment 2 hrs (100% PG, 9% MP, 2% PP), time 36 days): 2.392 mg/1″ catheter
- Total MP released (mg)/1″ catheter ([2]; treatment 2 hrs (100% PG, 9% MP, 2% PP), time 50 days): 2.402 mg/1″ catheter
- Total MP released (mg)/1″ catheter ([2]; treatment 2 hrs (100% PG, 9% MP, 2% PP), time 67 days): 2.409 mg/1″ catheter
- Total MP released (mg)/1″ catheter ([2]; treatment 2 hrs (100% PG, 9% MP, 2% PP), time 81 days): 2.413 mg/1″ catheter
- Total MP released (mg)/1″ catheter ([2]; treatment 4 hrs (100% PG, 9% MP, 2% PP), time 1 hour): 0.603 mg/1″ catheter
- Total MP released (mg)/1″ catheter ([2]; treatment 4 hrs (100% PG, 9% MP, 2% PP), time 3 hours): 1.04 mg/1″ catheter
- Total MP released (mg)/1″ catheter ([2]; treatment 4 hrs (100% PG, 9% MP, 2% PP), time 7 hours): 1.472 mg/1″ catheter
- Total MP released (mg)/1″ catheter ([2]; treatment 4 hrs (100% PG, 9% MP, 2% PP), time 24 hours): 2.223 mg/1″ catheter
- Total MP released (mg)/1″ catheter ([2]; treatment 4 hrs (100% PG, 9% MP, 2% PP), time 4 days): 2.774 mg/1″ catheter
- Total MP released (mg)/1″ catheter ([2]; treatment 4 hrs (100% PG, 9% MP, 2% PP), time 5 days): 3.01 mg/1″ catheter
- Total MP released (mg)/1″ catheter ([2]; treatment 4 hrs (100% PG, 9% MP, 2% PP), time 6 days): 3.146 mg/1″ catheter
- Total MP released (mg)/1″ catheter ([2]; treatment 4 hrs (100% PG, 9% MP, 2% PP), time 8 days): 3.324 mg/1″ catheter
- Total MP released (mg)/1″ catheter ([2]; treatment 4 hrs (100% PG, 9% MP, 2% PP), time 11 days): 3.449 mg/1″ catheter
- Total MP released (mg)/1″ catheter ([2]; treatment 4 hrs (100% PG, 9% MP, 2% PP), time 13 days): 3.536 mg/1″ catheter
- Total MP released (mg)/1″ catheter ([2]; treatment 4 hrs (100% PG, 9% MP, 2% PP), time 15 days): 3.597 mg/1″ catheter
- Total MP released (mg)/1″ catheter ([2]; treatment 4 hrs (100% PG, 9% MP, 2% PP), time 18 days): 3.646 mg/1″ catheter
- Total MP released (mg)/1″ catheter ([2]; treatment 4 hrs (100% PG, 9% MP, 2% PP), time 22 days): 3.676 mg/1″ catheter
- Total MP released (mg)/1″ catheter ([2]; treatment 4 hrs (100% PG, 9% MP, 2% PP), time 29 days): 3.701 mg/1″ catheter
- Total MP released (mg)/1″ catheter ([2]; treatment 4 hrs (100% PG, 9% MP, 2% PP), time 36 days): 3.722 mg/1″ catheter
- Total MP released (mg)/1″ catheter ([2]; treatment 4 hrs (100% PG, 9% MP, 2% PP), time 50 days): 3.74 mg/1″ catheter
- Total MP released (mg)/1″ catheter ([2]; treatment 4 hrs (100% PG, 9% MP, 2% PP), time 67 days): 3.749 mg/1″ catheter
- Total MP released (mg)/1″ catheter ([2]; treatment 4 hrs (100% PG, 9% MP, 2% PP), time 81 days): 3.755 mg/1″ catheter
- Total MP released (mg)/1″ catheter ([2]; treatment 9 hrs (100% PG, 9% MP, 2% PP), time 1 hour): 0.67 mg/1″ catheter
- Total MP released (mg)/1″ catheter ([2]; treatment 9 hrs (100% PG, 9% MP, 2% PP), time 3 hours): 1.18 mg/1″ catheter
- Total MP released (mg)/1″ catheter ([2]; treatment 9 hrs (100% PG, 9% MP, 2% PP), time 7 hours): 1.504 mg/1″ catheter
- Total MP released (mg)/1″ catheter ([2]; treatment 9 hrs (100% PG, 9% MP, 2% PP), time 24 hours): 1.993 mg/1″ catheter
- Total MP released (mg)/1″ catheter ([2]; treatment 9 hrs (100% PG, 9% MP, 2% PP), time 4 days): 2.725 mg/1″ catheter
- Total MP released (mg)/1″ catheter ([2]; treatment 9 hrs (100% PG, 9% MP, 2% PP), time 5 days): 3.082 mg/1″ catheter
- Total MP released (mg)/1″ catheter ([2]; treatment 9 hrs (100% PG, 9% MP, 2% PP), time 6 days): 3.27 mg/1″ catheter
- Total MP released (mg)/1″ catheter ([2]; treatment 9 hrs (100% PG, 9% MP, 2% PP), time 8 days): 3.456 mg/1″ catheter
- Total MP released (mg)/1″ catheter ([2]; treatment 9 hrs (100% PG, 9% MP, 2% PP), time 11 days): 3.593 mg/1″ catheter
- Total MP released (mg)/1″ catheter ([2]; treatment 9 hrs (100% PG, 9% MP, 2% PP), time 13 days): 3.676 mg/1″ catheter
- Total MP released (mg)/1″ catheter ([2]; treatment 9 hrs (100% PG, 9% MP, 2% PP), time 15 days): 3.734 mg/1″ catheter
- Total MP released (mg)/1″ catheter ([2]; treatment 9 hrs (100% PG, 9% MP, 2% PP), time 18 days): 3.788 mg/1″ catheter
- Total MP released (mg)/1″ catheter ([2]; treatment 9 hrs (100% PG, 9% MP, 2% PP), time 22 days): 3.832 mg/1″ catheter
- Total MP released (mg)/1″ catheter ([2]; treatment 9 hrs (100% PG, 9% MP, 2% PP), time 29 days): 3.872 mg/1″ catheter
- Total MP released (mg)/1″ catheter ([2]; treatment 9 hrs (100% PG, 9% MP, 2% PP), time 36 days): 3.912 mg/1″ catheter
- Total MP released (mg)/1″ catheter ([2]; treatment 9 hrs (100% PG, 9% MP, 2% PP), time 50 days): 3.944 mg/1″ catheter
- Total MP released (mg)/1″ catheter ([2]; treatment 9 hrs (100% PG, 9% MP, 2% PP), time 67 days): 3.958 mg/1″ catheter
- Total MP released (mg)/1″ catheter ([2]; treatment 9 hrs (100% PG, 9% MP, 2% PP), time 81 days): 3.967 mg/1″ catheter
